Measurements published in paper PMC6044955 (ACS Omega, 2017).

Key:
Type in all cases: cell-based
[1] = target: hα9α10 nAChR (Homo sapiens, UniProt Q9GZZ6+Q9UGM1)
[2] = target: hα3β2 nAChR (Homo sapiens, UniProt P17787+P32297)
[3] = target: hα3β4 nAChR (Homo sapiens, UniProt P30926+P32297)
hα3β4 nAChR, sequence (P32297 32-505): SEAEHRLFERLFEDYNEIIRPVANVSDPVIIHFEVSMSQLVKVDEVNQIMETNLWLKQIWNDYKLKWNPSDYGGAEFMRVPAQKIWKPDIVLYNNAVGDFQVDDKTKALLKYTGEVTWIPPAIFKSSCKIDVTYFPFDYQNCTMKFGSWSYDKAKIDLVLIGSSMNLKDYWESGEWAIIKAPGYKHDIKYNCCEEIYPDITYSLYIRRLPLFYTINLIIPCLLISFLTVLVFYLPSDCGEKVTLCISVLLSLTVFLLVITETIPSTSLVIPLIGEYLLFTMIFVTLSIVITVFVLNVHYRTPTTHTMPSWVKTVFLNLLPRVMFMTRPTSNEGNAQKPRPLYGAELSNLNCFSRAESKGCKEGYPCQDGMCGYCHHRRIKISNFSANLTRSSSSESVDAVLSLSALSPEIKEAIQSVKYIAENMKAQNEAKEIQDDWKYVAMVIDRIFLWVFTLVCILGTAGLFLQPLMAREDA
hα3β4 nAChR, sequence (P30926 22-498): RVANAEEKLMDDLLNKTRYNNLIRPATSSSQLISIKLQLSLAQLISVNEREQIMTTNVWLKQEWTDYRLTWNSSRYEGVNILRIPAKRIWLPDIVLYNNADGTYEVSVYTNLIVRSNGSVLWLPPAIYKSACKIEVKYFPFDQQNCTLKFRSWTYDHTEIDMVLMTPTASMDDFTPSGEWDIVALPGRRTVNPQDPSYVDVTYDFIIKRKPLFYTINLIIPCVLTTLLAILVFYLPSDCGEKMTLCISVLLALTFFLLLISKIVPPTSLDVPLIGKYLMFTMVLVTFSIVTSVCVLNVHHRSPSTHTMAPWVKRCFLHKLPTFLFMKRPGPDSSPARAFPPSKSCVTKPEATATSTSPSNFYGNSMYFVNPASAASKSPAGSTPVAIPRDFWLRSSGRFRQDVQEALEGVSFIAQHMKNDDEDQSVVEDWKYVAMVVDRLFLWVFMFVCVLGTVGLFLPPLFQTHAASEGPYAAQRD

hα3β2 nAChR, sequence (P32297 32-505): as the sequence (P32297 32-505) above
hα3β2 nAChR, sequence (P17787 26-502): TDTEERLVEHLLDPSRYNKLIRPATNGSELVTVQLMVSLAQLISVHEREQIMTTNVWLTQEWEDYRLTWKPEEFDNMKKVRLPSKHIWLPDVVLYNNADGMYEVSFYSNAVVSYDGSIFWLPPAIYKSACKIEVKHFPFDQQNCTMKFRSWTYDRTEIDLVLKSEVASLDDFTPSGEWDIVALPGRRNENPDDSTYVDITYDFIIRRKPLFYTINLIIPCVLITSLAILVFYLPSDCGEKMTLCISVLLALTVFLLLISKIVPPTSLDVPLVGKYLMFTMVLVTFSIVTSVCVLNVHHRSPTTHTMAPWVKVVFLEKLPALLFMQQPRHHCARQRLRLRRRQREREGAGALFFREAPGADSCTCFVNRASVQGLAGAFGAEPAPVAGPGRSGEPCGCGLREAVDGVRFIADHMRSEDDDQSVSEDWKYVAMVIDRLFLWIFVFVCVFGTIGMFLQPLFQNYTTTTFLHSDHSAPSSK
hα9α10 nAChR, sequence (Q9UGM1 26-479 limits assumed): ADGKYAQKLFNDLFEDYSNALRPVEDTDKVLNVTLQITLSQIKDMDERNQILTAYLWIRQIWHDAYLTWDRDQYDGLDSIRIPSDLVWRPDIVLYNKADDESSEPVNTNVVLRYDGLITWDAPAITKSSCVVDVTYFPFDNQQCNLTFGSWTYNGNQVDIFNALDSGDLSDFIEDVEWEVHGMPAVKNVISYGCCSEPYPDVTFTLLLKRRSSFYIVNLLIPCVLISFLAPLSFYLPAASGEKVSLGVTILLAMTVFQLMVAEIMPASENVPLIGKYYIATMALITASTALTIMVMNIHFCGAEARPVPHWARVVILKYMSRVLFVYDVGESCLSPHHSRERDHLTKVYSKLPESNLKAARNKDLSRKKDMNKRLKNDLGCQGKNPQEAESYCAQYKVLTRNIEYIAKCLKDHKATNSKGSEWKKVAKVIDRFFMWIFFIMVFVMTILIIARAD
hα9α10 nAChR, sequence (Q9GZZ6 25-450): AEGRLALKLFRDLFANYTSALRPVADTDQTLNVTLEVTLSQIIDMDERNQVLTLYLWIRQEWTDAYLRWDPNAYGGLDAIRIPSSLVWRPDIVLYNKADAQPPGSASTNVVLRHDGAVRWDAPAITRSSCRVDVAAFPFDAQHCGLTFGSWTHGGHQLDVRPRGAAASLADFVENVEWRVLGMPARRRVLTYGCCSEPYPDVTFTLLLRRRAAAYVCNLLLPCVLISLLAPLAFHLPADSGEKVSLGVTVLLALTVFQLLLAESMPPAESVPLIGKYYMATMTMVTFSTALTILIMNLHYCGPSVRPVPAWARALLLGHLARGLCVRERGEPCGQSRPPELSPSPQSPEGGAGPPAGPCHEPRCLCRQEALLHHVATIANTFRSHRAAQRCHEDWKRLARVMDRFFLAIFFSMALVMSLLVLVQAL

α-conotoxin Vc1.1
Inhibition of ACh-evoked current at hα9α10 nAChR [1]: complete inhibition | Inhibition of ACh-evoked current at hα3β2 nAChR [2]: complete inhibition

α-conotoxin BuIA
Inhibition of the ACh-evoked current amplitude at hα3β4 nAChR [3]: > 90% | Inhibition of the ACh-evoked current amplitude at hα3β2 nAChR [2]: > 90%
